Test results as given in patent publication US7884136B2, “Modified-release formulations of a bupropion salt” (Biovail Laboratories International S.R.L., priority 2005, dated 2011).

Assays:
[1] = Accelerated stability study of bupropion HBr, closed bottles, 40° C./75% RH, 3 and 6 months, HPLC; format: physicochemical; details: Batch D00896, 40° C., R.H. 75%; for Chromatographic purity B) (HPLC) 4) 2-N-(tert-Butyl)-aminopropiophenone / Chromatographic purity B) (HPLC) 5) single unknown impurity (each): LOQ 0.02%, LOD 0.002%; for Chromatographic purity A) (HPLC) 1) 3′-Chloropropiophenone / Chromatographic purity A) (HPLC) 3) 3′-Chlorobenzoic acid / Chromatographic purity A) (HPLC) 2) 3′-Chloro-2-bromopropiophenone: LOQ 0.05%; for Chromatographic purity A) (HPLC) 1) 3′-Chloropropiophenone / Chromatographic purity A) (HPLC) 3) 3′-Chlorobenzoic acid: LOD 0.01%; for Chromatographic purity A) (HPLC) 2) 3′-Chloro-2-bromopropiophenone: LOD 0.04%
Description: The samples were prepared in closed bottles and placed in the stability chamber. HPLC analysis was conducted on the samples prior to placing them in the stability chamber (time 0), and after 3 months and 6 months. The amounts of the main degradation products present at time 0 were compared with those amounts present after 3 months and 6 months. […] For each sample tested, at each time period, two different HPLC assays were run. The first assay labelled chromatographic purity A, measured the percentage of three impurities 3′chloropropiophenone, 3′-Chloro-2-bromopropiophenone and 3′-Chlorobenzoic acid. The second assay, labelled chromatographic purity B, measured the percentage of 2-N-(tert-Butyl)-aminopropiophenone, a single unknown impurity and the total unknown impurities.

[2] = Shelf life stability program of bupropion HBr, 25° C./60% RH, 3 and 6 months, HPLC; format: physicochemical; details: Batch D00894, 25° C., R.H. 60%; for Chromatographic purity B) (HPLC) 4) 2-N-(tert-Butyl)-aminopropiophenone / Chromatographic purity B) (HPLC) 5) single unknown impurity (each): LOQ 0.02%, LOD 0.002%; for Chromatographic purity A) (HPLC) 1) 3′-Chloropropiophenone / Chromatographic purity A) (HPLC) 3) 3′-Chlorobenzoic acid / Chromatographic purity A) (HPLC) 2) 3′-Chloro-2-bromopropiophenone: LOQ 0.05%; for Chromatographic purity A) (HPLC) 1) 3′-Chloropropiophenone / Chromatographic purity A) (HPLC) 3) 3′-Chlorobenzoic acid: LOD 0.01%; for Chromatographic purity A) (HPLC) 2) 3′-Chloro-2-bromopropiophenone: LOD 0.04%
Description: The stability of bupropion HBr was studied over a longer term under conditions meant to approximate standard storage or shelf conditions. Samples were prepared in closed containers and subjected to long-term storage at 25° C.+2° C. and 60%+5% RH in a stability chamber. The samples were analyzed by HPLC prior to being placed in the stability chamber (time 0) and after 3 months and 6 months. The amounts of the main degradation products present at time 0 were compared with the amounts present at 3 months and 6 months. As shown in Table 77-79 three different batches of bupropion HBr were tested. As in Example 10 each sample was tested under two HPLC assay conditions to identify 6 impurities or groups of impurities as described in Example 10.

Br.CC(NC(C)(C)C)C(=O)c1cccc(Cl)c1 (stereo not drawn) [Bupropion•HBr]
Assay (HPLC) ([1]; 3 month): 100.0 % on d.b.
Chromatographic purity (HPLC: A + B) Total impurities ([1]; 3 month): 0.1%
Chromatographic purity B) (HPLC) 6) total unknown impurities ([1]; 3 month): 6) 0.05%
Description (white or almost white crystalline powder) ([1]; 3 month): conform
Identification IR, HPLC ([1]; 3 month): positive
Water content (K.F.) ([1]; 3 month): 0.11%
Chromatographic purity B) (HPLC) 4) 2-N-(tert-Butyl)-aminopropiophenone ([1]; 3 month): 4) 0.03%
Chromatographic purity B) (HPLC) 5) single unknown impurity (each) ([1]; 3 month): 5) 0.04%
Chromatographic purity A) (HPLC) 1) 3′-Chloropropiophenone ([1]; 3 month): 1) n.q.
Chromatographic purity A) (HPLC) 3) 3′-Chlorobenzoic acid ([1]; 3 month): 3) n.q.
Chromatographic purity A) (HPLC) 2) 3′-Chloro-2-bromopropiophenone ([1]; 3 month): 2) n.d.
Assay (HPLC) ([1]; 6 months): 100.4 % on d.b.
Chromatographic purity (HPLC: A + B) Total impurities ([1]; 6 months): 0.1%
Chromatographic purity B) (HPLC) 6) total unknown impurities ([1]; 6 months): 6) n.q.
Description (white or almost white crystalline powder) ([1]; 6 months): conform
Identification IR, HPLC ([1]; 6 months): positive
Water content (K.F.) ([1]; 6 months): 0.04%
Chromatographic purity B) (HPLC) 4) 2-N-(tert-Butyl)-aminopropiophenone ([1]; 6 months): 4) 0.04%
Chromatographic purity B) (HPLC) 5) single unknown impurity (each) ([1]; 6 months): 5) n.q.
Chromatographic purity A) (HPLC) 1) 3′-Chloropropiophenone ([1]; 6 months): 1) 0.05%
Chromatographic purity A) (HPLC) 3) 3′-Chlorobenzoic acid ([1]; 6 months): 3) n.q.
Chromatographic purity A) (HPLC) 2) 3′-Chloro-2-bromopropiophenone ([1]; 6 months): 2) n.d.
Assay (HPLC) ([1]; Time 0): 99.3 % on d.b.
Chromatographic purity (HPLC: A + B) Total impurities ([1]; Time 0): 0.1%
Chromatographic purity B) (HPLC) 6) total unknown impurities ([1]; Time 0): 6) 0.05%
Description (white or almost white crystalline powder) ([1]; Time 0): conform
Identification IR, HPLC ([1]; Time 0): positive
Water content (K.F.) ([1]; Time 0): 0.06%
Chromatographic purity B) (HPLC) 4) 2-N-(tert-Butyl)-aminopropiophenone ([1]; Time 0): 4) 0.04%
Chromatographic purity B) (HPLC) 5) single unknown impurity (each) ([1]; Time 0): 5) 0.05%
Chromatographic purity A) (HPLC) 1) 3′-Chloropropiophenone ([1]; Time 0): 1) n.d.
Chromatographic purity A) (HPLC) 3) 3′-Chlorobenzoic acid ([1]; Time 0): 3) n.q.
Chromatographic purity A) (HPLC) 2) 3′-Chloro-2-bromopropiophenone ([1]; Time 0): 2) n.d.
Assay (HPLC) ([2]; 3 months): 99.4 % on d.b.
Chromatographic purity (HPLC: A + B) Total impurities ([2]; 3 months): 0.1%
Chromatographic purity B) (HPLC) 6) total unknown impurities ([2]; 3 months): 6) 0.05%
Description (white or almost white crystalline powder) ([2]; 3 months): conform
Identification IR, HPLC ([2]; 3 months): positive
Water content (K.F.) ([2]; 3 months): 0.05%
Chromatographic purity B) (HPLC) 4) 2-N-(tert-Butyl)-aminopropiophenone ([2]; 3 months): 4) 0.03%
Chromatographic purity B) (HPLC) 5) single unknown impurity (each) ([2]; 3 months): 5) 0.04%
Chromatographic purity A) (HPLC) 1) 3′-Chloropropiophenone ([2]; 3 months): 1) n.q.
Chromatographic purity A) (HPLC) 3) 3′-Chlorobenzoic acid ([2]; 3 months): 3) n.q.
Chromatographic purity A) (HPLC) 2) 3′-Chloro-2-bromopropiophenone ([2]; 3 months): 2) n.d.
Assay (HPLC) ([2]; 6 months): 100.2 % on d.b.
Chromatographic purity (HPLC: A + B) Total impurities ([2]; 6 months): 0.1%
Chromatographic purity B) (HPLC) 6) total unknown impurities ([2]; 6 months): 6) 0.02%
Description (white or almost white crystalline powder) ([2]; 6 months): conform
Identification IR, HPLC ([2]; 6 months): positive
Water content (K.F.) ([2]; 6 months): 0.06%
Chromatographic purity B) (HPLC) 4) 2-N-(tert-Butyl)-aminopropiophenone ([2]; 6 months): 4) 0.05%
Chromatographic purity B) (HPLC) 5) single unknown impurity (each) ([2]; 6 months): 5) n.q.
Chromatographic purity A) (HPLC) 1) 3′-Chloropropiophenone ([2]; 6 months): 1) 0.05%
Chromatographic purity A) (HPLC) 3) 3′-Chlorobenzoic acid ([2]; 6 months): 3) n.q.
Chromatographic purity A) (HPLC) 2) 3′-Chloro-2-bromopropiophenone ([2]; 6 months): 2) n.d.
Assay (HPLC) ([2]; 9 months): 99.5 % on d.b.
Chromatographic purity (HPLC: A + B) Total impurities ([2]; 9 months): n.q.
Chromatographic purity B) (HPLC) 6) total unknown impurities ([2]; 9 months): 6) n.q.
Description (white or almost white crystalline powder) ([2]; 9 months): conform
Identification IR, HPLC ([2]; 9 months): positive
Water content (K.F.) ([2]; 9 months): 0.05%
Chromatographic purity B) (HPLC) 4) 2-N-(tert-Butyl)-aminopropiophenone ([2]; 9 months): 4) n.d.
Chromatographic purity B) (HPLC) 5) single unknown impurity (each) ([2]; 9 months): 5) n.q.
Chromatographic purity A) (HPLC) 1) 3′-Chloropropiophenone ([2]; 9 months): 1) n.q.
Chromatographic purity A) (HPLC) 3) 3′-Chlorobenzoic acid ([2]; 9 months): 3) n.q.
Chromatographic purity A) (HPLC) 2) 3′-Chloro-2-bromopropiophenone ([2]; 9 months): 2) n.d.
